The text below walks through data of patent US6407247B1, “Photo-stable cosmetic and pharmaceutical formulations containing UV-filters” (BASF Aktiengesellschaft, priority 1996, dated 2002).

The structures appear in SMILES notation.

A short description of data set [1]: UV absorption of the compounds of Table 2 (absorption maximum and specific extinction). Format: physicochemical. The arrangement: λmax: unit not given beside the values. The note with it: for λmax: UV absorption maximum; for E^11: specific extinction at λmax.
For data set [2] the following is noted: used alone or in combination with UV-B filters; cited from earlier work.

For `CCCCC(CC)COC(=O)c1ccc(NC=C(C#N)C(=O)C(C)(C)C)cc1` (stereo not drawn) [Compound 1], in data set [1] (Table 2), the λmax stood at 346 and the “E^11” value is reported as 860.
`Cc1cccc(NC=C(C#N)C(=O)C(C)(C)C)c1` [Compound 2]: in data set [1] (Table 2), the λmax stood at 338 and the “E^11” value came to 978.
Consider `COc1ccc(NC=C(C#N)C(=O)C(C)(C)C)cc1` [Compound 3], for which, in data set [1] (Table 2), the λmax is reported as 348 and the “E^11” value is on record as 841.
With `CC(C)(C)C(=O)C(C#N)=CNc1ccc(C(C)(C)C)cc1` [Compound 4], in data set [1] (Table 2), the λmax was 342 and the “E^11” value is on record as 888.
On to `CCCCc1ccc(NC=C(C#N)C(=O)C(C)(C)C)cc1` [Compound 5], for which, in data set [1] (Table 2), the λmax was 342 and the “E^11” value came out at 884.
The matching figures for `CCCCC(CC)CNC(=O)c1ccc(NC=C(C#N)C(=O)C(C)(C)C)cc1` (stereo not drawn) [Compound 6]: 346 and 773.
The matching figures for `CC(C)c1ccc(NC=C(C#N)C(=O)C(C)(C)C)cc1` [Compound 7]: 342 and 903.
Taken in the same sequence, the figures for `CCCc1ccc(NC=C(C#N)C(=O)C(C)(C)C)cc1` [Compound 8] were 342 and 918.
In the case of `CCCCC(CC)COC(=O)c1ccccc1NC=C(C#N)C(=O)C(C)(C)C` (stereo not drawn) [Compound 9], in data set [1] (Table 2), the λmax came to 348 and the “E^11” value turned out to be 717.
The matching figures for `CC(C)(C)C(=O)C(C#N)=CNc1ccccc1C#N` [Compound 10]: 338 and 995.
Taken in the same sequence, the figures for `CC(C)Oc1cccc(NC=C(C#N)C(=O)C(C)(C)C)c1` [Compound 12] were 340 and 829.
`CC(C)(C)C(=O)C(C#N)=CNc1ccccc1C(=O)O.OCCN(CCO)CCO` [Compound 13] displayed a λmax in data set [1] (Table 2) of 346. In addition, in data set [1] (Table 2, (water)), the “E^11” value was 667 (water).
Turning to `COc1ccc(OC)c(NC=C(C#N)C(=O)C(C)(C)C)c1` [Compound 14], in data set [1] (Table 2), the λmax stood at 362 and the “E^11” value is recorded as 491.
Taken in the same sequence, the figures for `CC(C)(C)C(=O)C(C#N)=CNc1ccccc1C(=O)O` [Compound 15] were 346 and 965.
On to `CC(C)(C)C(=O)C(C#N)=CNc1ccc(S(=O)(=O)O)cc1.OCCN(CCO)CCO` [Compound 16], for which the λmax in data set [1] (Table 2) is given as 340. For the same compound, the “E^11” value in data set [1] (Table 2, (water)) is recorded as 666 (water).
As to `CC(C)(C)C(=O)C(C#N)=CNc1ccc(S(=O)(=O)[O-])cc1.[Na+]` [Compound 17], the λmax in data set [1] (Table 2) is 340. For the same compound, the “E^11” value in data set [1] (Table 2, (water)) is 1010 (water).
Take `CCOc1ccccc1NC=C(C#N)C(=O)C(C)(C)C` [Compound 18]: in data set [1] (Table 2), the λmax is listed as 352 and the “E^11” value is recorded as 876.
Take `COC(=O)c1ccccc1NC=C(C#N)C(=O)C(C)(C)C` [Compound 19]: in data set [1] (Table 2), the λmax was found to be 348 and the “E^11” value amounted to 995.
On to `CC(C)COC(=O)c1ccccc1NC=C(C#N)C(=O)C(C)(C)C` [Compound 20], for which, in data set [1] (Table 2), the λmax was determined as 348 and the “E^11” value worked out at 864.
For `CCCCOC(=O)c1ccccc1NC=C(C#N)C(=O)C(C)(C)C` [Compound 21], in data set [1] (Table 2), the λmax turned out to be 346 and the “E^11” value was 825.
In the case of `CCCCOC(=O)c1ccccc1NC=C(C(C)=O)C(C)=O` [Compound 25], in data set [1] (Table 2), the λmax is 344 and the “E^11” value is on record as 938.
The matching figures for `COc1cccc(NC=C(C(C)=O)C(C)=O)c1` [Compound 26]: 336 and 1035.
Consider `CCCCC(CC)COC(=O)c1ccc(NC=C(C(C)=O)C(C)=O)cc1` (stereo not drawn) [Compound 27], for which, in data set [1] (Table 2), the λmax stood at 346 and the “E^11” value was 1049.
For `CCCCC(CC)COC(=O)c1ccccc1NC=C(C(C)=O)C(=O)CC` (stereo not drawn) [Compound 28], in data set [1] (Table 2), the λmax turned out to be 346 and the “E^11” value was 757.
Regarding `CCCCC(CC)COC(=O)c1ccc(NC=C(C(C)=O)C(=O)OC)cc1` (stereo not drawn) [Compound 29], in data set [1] (Table 2), the λmax is 346 and the “E^11” value is reported as 941.
`COC(=O)/C(=C\Nc1ccccc1C(=O)OC)C(C)=O` [Compound 30]: in data set [1] (Table 2), the λmax amounted to 344 and the “E^11” value came out at 1008.
For `CCCCC(CC)COC(=O)c1ccccc1NC=C(C(C)=O)C(=O)OC(C)(C)C` (stereo not drawn) [Compound 31], in data set [1] (Table 2), the λmax is 344 and the “E^11” value stood at 717.
Regarding `CCCCC(CC)COC(=O)C(C#N)=CNc1ccc(OC)cc1OC` (stereo not drawn) [Compound 32], in data set [1] (Table 2), the λmax worked out at 346 and the “E^11” value is listed as 646.
Taken in the same sequence, the figures for `CCCCC(CC)COC(=O)C(C#N)=CNc1cc(OC)ccc1OC` (stereo not drawn) [Compound 33] were 350 and 612.
Taken in the same sequence, the figures for `CCCCC(CC)COC(=O)C(C#N)=CNc1cc(OC)cc(OC)c1` (stereo not drawn) [Compound 34] were 322 and 761.
On to `CCCCC(CC)COC(=O)C(C#N)=CNc1ccc(C(=O)OCC)cc1` (stereo not drawn) [Compound 35], for which, in data set [1] (Table 2), the λmax was determined as 332 and the “E^11” value is 1105.
With `CCCCC(CC)COC(=O)C(C#N)=CNc1ccccc1C(=O)OC` (stereo not drawn) [Compound 36], in data set [1] (Table 2), the λmax turned out to be 336 and the “E^11” value is reported as 752.
Taken in the same sequence, the figures for `CCOC(=O)C(=CNc1ccccc1C(=O)OC)C(=O)OCC` [Compound 37] were 336 and 890.
Taken in the same sequence, the figures for `CCCCC(CC)COC(=O)c1ccccc1NC=C(C(=O)OCC)C(=O)OCC` (stereo not drawn) [Compound 38] were 335 and 630.
Taken in the same sequence, the figures for `CCCCC(CC)COC(=O)c1ccc(NC=C(C(=O)OCC)C(=O)OCC)cc1` (stereo not drawn) [Compound 39] were 320 and 700.
With `CCCCC(CC)COC(=O)c1ccccc1NC=C1CCC(C)(C)CC1=O` (stereo not drawn) [Compound 40], in data set [1] (Table 2), the λmax was determined as 358 and the “E^11” value worked out at 743.
The matching figures for `CCCCC(CC)COC(=O)c1ccc(NC=C(C#N)C#N)cc1` (stereo not drawn) [Compound 41]: 330 and 1191.
Regarding `CCCCC(CC)COC(=O)c1ccc(NC=C2C(=O)c3ccccc3C2=O)cc1` (stereo not drawn) [Compound 42], in data set [1] (Table 2), the λmax was 374 and the “E^11” value is on record as 1175.
Taken in the same sequence, the figures for `CCCCC(CC)COC(=O)c1ccc(NC=C(C#N)C(=O)c2ccccc2)cc1` (stereo not drawn) [Compound 43] were 362 and 869.
The matching figures for `CCCCC(CC)COC(=O)c1ccc(NC=C2C(=O)OC(C)(C)OC2=O)cc1` (stereo not drawn) [Compound 44]: 336 and 896.
In the case of `COc1ccc(C(=O)CC(=O)c2ccc(C(C)(C)C)cc2)cc1` [PARSOL 1789, 4-(1,1-dimethylethyl)-4-methoxy-dibenzoylmethane], the photochemical stability entry in data set [2] was “not sufficiently photochemically stable”.
